How the values were obtained:
Assay type in all cases: cell-based
B. thailandensis E264 = tested on: B. thailandensis E264; set-up: key: —: No effect (i.e. no significant difference between control [culture with no peptide] and culture with peptide); *: ~1 log effect (i.e. culture with peptide that's growth was ~1 log less than control); **: 1-2 log effect; ***: 2-4 log effect; ****: >4 log effect; “”: “Immediate effect” (i.e. loss of growth by at least 1 log compared to control immediately on addition of peptide [T = 0])
[1] = tested on: Y. pseudotuberculosis IP32593; set-up: key: —: No effect (i.e. no significant difference between control [culture with no peptide] and culture with peptide); *: ~1 log effect (i.e. culture with peptide that's growth was ~1 log less than control); **: 1-2 log effect; ***: 2-4 log effect; ****: >4 log effect; “”: “Immediate effect” (i.e. loss of growth by at least 1 log compared to control immediately on addition of peptide [T = 0])
F. novicida U112 = tested on: F. novicida U112; set-up: key: —: No effect (i.e. no significant difference between control [culture with no peptide] and culture with peptide); *: ~1 log effect (i.e. culture with peptide that's growth was ~1 log less than control); **: 1-2 log effect; ***: 2-4 log effect; ****: >4 log effect; “”: “Immediate effect” (i.e. loss of growth by at least 1 log compared to control immediately on addition of peptide [T = 0])
F. tularensis LVS = tested on: F. tularensis LVS; set-up: key: —: No effect (i.e. no significant difference between control [culture with no peptide] and culture with peptide); *: ~1 log effect (i.e. culture with peptide that's growth was ~1 log less than control); **: 1-2 log effect; ***: 2-4 log effect; ****: >4 log effect; “”: “Immediate effect” (i.e. loss of growth by at least 1 log compared to control immediately on addition of peptide [T = 0])
S. aureus ATCC29213 = assay: Viable count (CFU/ml) time-kill assay of peptides with bacteria; details: 102 μg/ml peptide, 37° C., growth versus PBS control

Sequence: GIGKFLHSAKKFGKAFVGEIMNS [Magainin II]
- Effect of peptides after 4 hours incubation with bacteria: B. thailandensis E264 (B. thailandensis E264): —
- Effect of peptides after 4 hours incubation with bacteria: Y. pseudotuberculosis IP32593 [1]: —
- Effect of peptides after 4 hours incubation with bacteria: F. novicida U112 (F. novicida U112): —
- Effect of peptides after 4 hours incubation with bacteria: F. tularensis LVS (F. tularensis LVS): —
- Effect of peptides after 4 hours incubation with bacteria: S. aureus ATCC29213 (S. aureus ATCC29213): **** (>4 log effect)

Reference: patent US20110237500A1, “CECROPIN-MAGAININ HYBRID PEPTIDES” (priority 2008, published 2011)
